In US20250114460A1, “NOVEL PLK1 DEGRADATION INDUCING COMPOUND” (UPPTHERA, INC., priority 2021, published 2025):

Experiments:
Type in all cases: cell-based
MRC-5 cell line = test: Cell viability assay for MRC-5 cell line (EZ-Cytox); conditions: Homo sapiens, MRC5, 120 h; MRC-5 normal cell line, 5 days, 10000 nM to 1.52 nM; N.D. = no cytotoxicity until 10 μM; read-out: Activity: IC50 value of Exemplary Compound to MRC-5 cell line
Protocol: 4. Cell Viability Assay for MRC-5 Cell Line
(1) Culture of MRC-5 Cell Line
Passage of cultured cells was maintained within P15.
(2) Treatment of Compounds of the Present Invention
Then, it was cultured in 37° C.
(3) Cytotoxicity Experiment
CO2 incubator for 4 hours.

NCI-H526 cell line = test: Cell viability assay for H526 cell (EZ-Cytox); conditions: Homo sapiens, NCI-H526, 120 h; H526 cells, 5 days, 3000 nM to 0.46 nM
Method in brief: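 Read-out was EZ-Cytox colorimetric absorbance at 450 nm, taken after brief plate shaking, with IC50 derived. Before reading, H526 cells had been cultured with test compound for 5 days.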

PLK1 = target: T1, PLK1 (Homo sapiens, UniProt P53350); test: Luciferase assay for PLK1 in HeLa LgBit (Plk1-HiBit KI) cell line; conditions: 300 nM compound, luminescence after 9 hours
T1 construct: endogenous in cells; host or cells: HeLa LgBit (Plk1-HiBit KI): HeLa stably expressing LgBit, with a CRISPR/Cas9 knock-in of HiBit at the endogenous PLK1 locus
T1 sequence (P53350 whole entry): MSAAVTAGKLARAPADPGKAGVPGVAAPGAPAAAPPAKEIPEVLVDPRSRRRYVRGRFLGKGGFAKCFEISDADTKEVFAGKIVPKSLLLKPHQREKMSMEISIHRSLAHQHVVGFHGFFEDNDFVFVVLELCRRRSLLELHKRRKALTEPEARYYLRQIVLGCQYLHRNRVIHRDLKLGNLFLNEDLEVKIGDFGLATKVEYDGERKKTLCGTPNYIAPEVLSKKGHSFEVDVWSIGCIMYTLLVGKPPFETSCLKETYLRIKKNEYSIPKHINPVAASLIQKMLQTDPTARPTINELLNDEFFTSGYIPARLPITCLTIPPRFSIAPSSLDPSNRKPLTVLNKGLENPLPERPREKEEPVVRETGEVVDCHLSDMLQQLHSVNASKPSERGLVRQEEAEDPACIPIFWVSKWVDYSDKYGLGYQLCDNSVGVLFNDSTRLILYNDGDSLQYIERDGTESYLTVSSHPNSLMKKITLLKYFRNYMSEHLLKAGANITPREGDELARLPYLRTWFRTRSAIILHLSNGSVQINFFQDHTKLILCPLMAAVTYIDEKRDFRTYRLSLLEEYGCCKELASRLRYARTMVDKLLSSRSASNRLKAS
Method in brief: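 Luminescence, followed in real time after adding compound at 300 nM and Endurazine substrate, is reported relative to DMSO-treated wells. Cells are a HeLa LgBit line with a Plk1-HiBit knock-in, synchronized by 2 mM thymidine for 24 h, released, and cultured 18 h before treatment.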

## COc1cc(C(=O)NC2CCN(C[C@H]3CCN(c4ccc5c(c4)C(=O)N(C4CCC(=O)NC4=O)C5=O)C3)CC2)ccc1Nc1ncc2c(n1)N(C1CCCC1)CC(F)(F)C(=O)N2C (stereo partly drawn) [Compound 49, 4-((9-cyclopentyl-7,7-difluoro-5-methyl-6-oxo-6,7,8,9-tetrahydro-5H-pyrimido[4,5-b][1,4]diazepin-2-yl)amino)-N-(1-(((3R)-1-(2-(2,6-dioxopiperidin-3-yl)-1,3-dioxoisoindolin-5-yl)pyrrolidin-3-yl)methyl)piperidin-4-yl)-3-methoxybenzamide]
MRC-5 cell line
  IC50: > 10 µM
NCI-H526 cell line
  IC50: < 0.05 µM
PLK1
  Activity: ratio of the luminescense value of each Exemplary Compound treatment group to DMSO treatment group: ++ (++<0.6)

## COc1cc(C(=O)NCC2CCN(CCC3CCN(c4cccc5c4C(=O)N(C4CCC(=O)NC4=O)C5=O)C3)CC2)ccc1Nc1ncc2c(n1)N(C1CCCC1)CC(F)(F)C(=O)N2C (stereo not drawn) [Compound 50, 4-((9-cyclopentyl-7,7-difluoro-5-methyl-6-oxo-6,7,8,9-tetrahydro-5H-pyrimido[4,5-b][1,4]diazepin-2-yl)amino)-N-((1-(2-(1-(2-(2,6-dioxopiperidin-3-yl)-1,3-dioxoisoindolin-4-yl)pyrrolidin-3-yl)ethyl)piperidin-4-yl)methyl)-3-methoxybenzamide]
MRC-5 cell line
  IC50: 11.3 µM
NCI-H526 cell line
  IC50: < 0.03 µM
PLK1
  Activity: ratio of the luminescense value of each Exemplary Compound treatment group to DMSO treatment group: ++ (++<0.6)

## COc1cc(C(=O)NN2CCN(C3CCN(c4cccc5c4C(=O)N(C4CCC(=O)NC4=O)C5=O)C3)CC2)ccc1Nc1ncc2c(n1)N(C1CCCC1)CC(F)(F)C(=O)N2C (stereo not drawn) [Compound 51, 4-((9-cyclopentyl-7,7-difluoro-5-methyl-6-oxo-6,7,8,9-tetrahydro-5H-pyrimido[4,5-b][1,4]diazepin-2-yl)amino)-N-(4-(1-(2-(2,6-dioxopiperidin-3-yl)-1,3-dioxoisoindolin-4-yl)pyrrolidin-3-yl)piperazin-1-yl)-3-methoxybenzamide]
MRC-5 cell line
  IC50: > 10 µM
NCI-H526 cell line
  IC50: < 0.03 µM
PLK1
  Activity: ratio of the luminescense value of each Exemplary Compound treatment group to DMSO treatment group: ++ (++<0.6)

## COc1cc(C(=O)NC2CCN(CCC3CCCN(c4cccc5c4C(=O)N(C4CCC(=O)NC4=O)C5=O)C3)CC2)ccc1Nc1ncc2c(n1)N(C1CCCC1)CC(F)(F)C(=O)N2C (stereo not drawn) [Compound 55, 4-((9-cyclopentyl-7,7-difluoro-5-methyl-6-oxo-6,7,8,9-tetrahydro-5H-pyrimido[4,5-b][1,4]diazepin-2-yl)amino)-N-(1-(2-(1-(2-(2,6-dioxopiperidin-3-yl)-1,3-dioxoisoindolin-4-yl)piperidin-3-yl)ethyl)piperidin-4-yl)-3-methoxybenzamide]
MRC-5 cell line
  IC50: 3.81 µM
NCI-H526 cell line
  IC50: < 0.1 µM
PLK1
  Activity: ratio of the luminescense value of each Exemplary Compound treatment group to DMSO treatment group: ++ (++<0.6)

## COc1cc(C(=O)NN2CCN(C3CCN(c4ccc5c(c4)C(=O)N(C4CCC(=O)NC4=O)C5=O)C3)CC2)ccc1Nc1ncc2c(n1)N(C1CCCC1)CC(F)(F)C(=O)N2C (stereo not drawn) [Compound 56, 4-((9-cyclopentyl-7,7-difluoro-5-methyl-6-oxo-6,7,8,9-tetrahydro-5H-pyrimido[4,5-b][1,4]diazepin-2-yl)amino)-N-(4-(1-(2-(2,6-dioxopiperidin-3-yl)-1,3-dioxoisoindolin-5-yl)pyrrolidin-3-yl)piperazin-1-yl)-3-methoxybenzamide]
MRC-5 cell line
  IC50: > 10 µM
NCI-H526 cell line
  IC50: < 0.03 µM
PLK1
  Activity: ratio of the luminescense value of each Exemplary Compound treatment group to DMSO treatment group: ++ (++<0.6)

## COc1cc(C(=O)NN2CCN(C(=O)CCC3CCN(c4cccc5c4CN(C4CCC(=O)NC4=O)C5=O)CC3)CC2)ccc1Nc1ncc2c(n1)N(C(C)C)CC(F)(F)C(=O)N2C (stereo not drawn) [Compound 58, 4-((7,7-difluoro-9-isopropyl-5-methyl-6-oxo-6,7,8,9-tetrahydro-5H-pyrimido[4,5-b][1,4]diazepin-2-yl)amino)-N-(4-(3-(1-(2-(2,6-dioxopiperidin-3-yl)-1-oxoisoindolin-4-yl)piperidin-4-yl)propanoyl)piperazin-1-yl)-3-methoxybenzamide]
MRC-5 cell line
  IC50: > 10 µM
NCI-H526 cell line
  IC50: < 0.05 µM
PLK1
  Activity: ratio of the luminescense value of each Exemplary Compound treatment group to DMSO treatment group: ++ (++<0.6)
